Measurements: the NIST ThermoML archive (doi:10.1016/j.jct.2017.08.004)

Experiments:
[1] = Molar enthalpy of transition or fusion; conditions: Crystal; DSC
[2] = for molar entropy: 101.33 kPa

OC[C@@H](O)C(O)[C@H](O)CO [D-arabitol]
Conditions | Molar enthalpy of transition or fusion [kcal/mol]
[1] | 9.46

[2]
Conditions | molar entropy [J/K/mol]
1 K, Crystal, relaxation calorimetry | 0.0005801
2 K, Crystal, relaxation calorimetry | 0.002268
3 K, Crystal, relaxation calorimetry | 0.006257
4 K, Crystal, relaxation calorimetry | 0.01391
5 K, Crystal, relaxation calorimetry | 0.02686
6 K, Crystal, relaxation calorimetry | 0.04705
7 K, Crystal, relaxation calorimetry | 0.07698
8 K, Crystal, relaxation calorimetry | 0.1198
9 K, Crystal, relaxation calorimetry | 0.179
10 K, Crystal, relaxation calorimetry | 0.2576
15 K, Crystal, relaxation calorimetry | 1.012
20 K, Crystal, relaxation calorimetry | 2.431
25 K, Crystal, relaxation calorimetry | 4.457
30 K, Crystal, relaxation calorimetry | 6.97
35 K, Crystal, relaxation calorimetry | 9.854
40 K, Crystal, relaxation calorimetry | 13.02
45 K, Crystal, relaxation calorimetry | 16.41
50 K, Crystal, relaxation calorimetry | 19.95
55 K, Crystal, relaxation calorimetry | 23.61
60 K, Crystal, relaxation calorimetry | 27.36
65 K, Crystal, relaxation calorimetry | 31.16
70 K, Crystal, relaxation calorimetry | 35.01
75 K, Crystal, relaxation calorimetry | 38.9
80 K, Crystal, relaxation calorimetry | 42.79
85 K, Crystal, relaxation calorimetry | 46.7
90 K, Crystal, relaxation calorimetry | 50.61
95 K, Crystal, relaxation calorimetry | 54.52
100 K, Crystal, relaxation calorimetry | 58.42
110 K, Crystal, relaxation calorimetry | 66.18
120 K, Crystal, relaxation calorimetry | 73.87
130 K, Crystal, relaxation calorimetry | 81.48
140 K, Crystal, relaxation calorimetry | 89.01
150 K, Crystal, relaxation calorimetry | 96.45
160 K, Crystal, relaxation calorimetry | 103.81
170 K, Crystal, relaxation calorimetry | 111.08
180 K, Crystal, relaxation calorimetry | 118.28
190 K, Crystal, relaxation calorimetry | 125.41
200 K, Crystal, relaxation calorimetry | 132.48
210 K, Crystal, relaxation calorimetry | 139.49
220 K, Crystal, relaxation calorimetry | 146.44
230 K, Crystal, relaxation calorimetry | 153.36
240 K, Crystal, relaxation calorimetry | 160.23
250 K, Crystal, relaxation calorimetry | 167.08
260 K, Crystal, relaxation calorimetry | 173.89
270 K, Crystal, relaxation calorimetry | 180.69
273.15 K, Crystal, relaxation calorimetry | 182.82
280 K, Crystal, relaxation calorimetry | 187.46
290 K, Crystal, relaxation calorimetry | 194.23
298.15 K, Crystal, relaxation calorimetry | 199.73
300 K, Crystal, relaxation calorimetry | 200.98
305 K, Crystal, Small sample (50 mg) DSC | 204.36
310 K, Crystal, Small sample (50 mg) DSC | 207.75
315 K, Crystal, Small sample (50 mg) DSC | 211.16
320 K, Crystal, Small sample (50 mg) DSC | 214.58
325 K, Crystal, Small sample (50 mg) DSC | 218.03
330 K, Crystal, Small sample (50 mg) DSC | 221.5
335 K, Crystal, Small sample (50 mg) DSC | 224.99
340 K, Crystal, Small sample (50 mg) DSC | 228.51
345 K, Crystal, Small sample (50 mg) DSC | 232.07
350 K, Crystal, Small sample (50 mg) DSC | 235.68
355 K, Crystal, Small sample (50 mg) DSC | 239.39
360 K, Crystal, Small sample (50 mg) DSC | 243.37
365 K, Crystal, Small sample (50 mg) DSC | 248.05
390 K, Liquid, Small sample (50 mg) DSC | 369.2
395 K, Liquid, Small sample (50 mg) DSC | 374.96
400 K, Liquid, Small sample (50 mg) DSC | 380.58
405 K, Liquid, Small sample (50 mg) DSC | 386.13
410 K, Liquid, Small sample (50 mg) DSC | 391.63
415 K, Liquid, Small sample (50 mg) DSC | 397.09
420 K, Liquid, Small sample (50 mg) DSC | 402.53

Conditions | Normal melting temperature [°C]
[2], Crystal, DTA | 99.23
